The text below walks through data of US9617264B2, “2,7-diazaspiro[3.5]nonane compounds” (REMYND NV, priority 2014, dated 2017).

One may read the EC50 as the concentration needed to bring the measured effect to its halfway point.

One assay deals with INS-1E cells. Description: Cytokine-induced apoptosis (caspase-3/7 activation, Caspase-Glo 3/7) in INS-1E rat insulinoma cells. The format is cell-based. The note with it: cytokine mix (IFN-γ, IL-1, TNF-α), 24 hours, caspase 3/7 activity, read-out: CYT EC50. An excerpt: The INS-1E cell line, a rat insulinoma cell line, has been characterized extensively. INS-1E cells respond to glucose by secreting insulin and, unlike most other immortalized n-cell lines, they do this in a consistent manner over time. The cells are sensitive to hyperglycemia-, free fatty acid (FFA)-, and cytokine-induced stress. Prolonged stress ultimately leads to induction of apoptotic pathways and, if stress is not counter-acted, to apoptosis. Caspase-3 and -7 play a central role downstream where various apoptotic pathways merge. As such, activation (i.e. cleavage) of these caspases forms a relevant primary read-out to evaluate protective activity of compounds against stress-induced apoptosis.
To evaluate the efficacy of different compounds to prevent induction of apoptosis, an in vitro screen was developed in which INS-1E cells were exposed to a cytokine mix (IFN-γ, 5 ng/ml; IL-1, 20 pg/ml; TNF-α, 0.25 ng/ml). The degree of induction of apoptosis was evaluated using a substrate for cleaved caspase-3 and -7, i.e. a proluminescent caspase-3/7 DEVD aminoluciferin substrate with a thermostable luciferase (Caspase-Glo® 3/7 assay; Promega, cat. G8092).
On day 0, INS-1E cells were plated in a white-walled 96-well microplate (Greiner, cat. 655098) at 20,000 cells per well in 100 μl complete medium (RPMI containing 11 mM glucose supplemented with 5% FCS, 100 IU/ml penicillin, 100 μg/ml streptomycin, 10 mM HEPES, 1 mM Sodium Pyruvate and 50 μM 2-Mercapto-ethanol). On day 2, 100 μl medium containing cytokines and compound dissolved in DMSO was added to the cells. Wells without cytokines containing DMSO and wells with cytokines and DMSO were included to evaluate the degree of caspase 3/7 activation by the cytokine mix. After 24 hours exposure to cytokines and/or compound, Caspase-Glo® 3/7 reagent was added to the cells and caspase activity was determined by measuring luminescence.
To evaluate compound efficacy, the “toxicity window” was calculated by subtracting caspase activity of wells without stressor from activity of wells with stressor but without compound. The amount of caspase activity in the latter wells was normalized to 1 and used as reference. Subsequently, caspase activity in the wells with stressor and varying concentrations of compound was calculated relative to the wells without compound. Plotting caspase activity vs the log 10 of the concentration of compound permitted calculation of the EC50 values for the compounds which typically lied between 0.0001 and 10 μM. Compounds with an EC50<10 μM were considered active.

The test system of the next assay is M17_3SYN cells. Put plainly: Paraquat-induced cytotoxicity (LDH) in α-synuclein over-expressing M17_3SYN neuroblastoma cells. In kind it is cell-based. Particulars: Homo sapiens, Neuroblastoma cell, 48 h, 6 mM Paraquat, 2 days, LDH toxicity inhibition, read-out: SYN EC50. In short, it runs like this: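 Human BE-M17 neuroblastoma cells stably overexpressing wild-type human α-synuclein were challenged with 6 mM paraquat (final) for 2 days at 37° C in the presence of graded compound concentrations. Cytotoxicity was measured as released LDH relative to total LDH, and EC50 was derived from dose-inhibition curves.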

For a further assay, the system named is db/db mice. Put plainly: In vivo evaluation in db/db mice (type 2 diabetes model). An excerpt:
For in vivo evaluation of compound efficacy, male BKS.Cg-+Leprdb/Leprdb/OlaHsd mice (db/db mice—Harlan) were used. The db/db phenotype results from a mutation in the leptin receptor gene, leading to a splice variant (Chen, Charlat et al. 1996; Lee, Proenca et al. 1996). The development of type 2 diabetes in db/db mice is associated with reduced insulin levels due to progressive β-cell failure following an initial period of hypersecretion of insulin. Since these mice develop type 2 diabetes in a manner related to pathology development in humans, and the model is accepted as in vivo model for evaluation of novel anti-diabetic treatments by the Food and Drug Administration (FDA, US), it is a highly relevant model for testing candidate drugs for efficacy.
Compounds were administered intraperitoneal (IP) or oral (PO) at a dose of maximally 50 mg/kg. Mice were subjected to metabolic analysis weekly or bi-weekly. These tests included but were not limited to determination of fasting (5 hrs) and non-fasting blood glucose levels, plasma insulin levels, % glycated hemoglobin (HbA1c) levels, glucose tolerance test and insulin sensitivity test.
Treatment with Cmpd045 at 15 mg/kg PO decreased body weight (FIG. 1A).

For `COc1ccc(S(=O)(=O)N2CC3(CCN(S(=O)(=O)c4ccc(OC(F)F)cc4)CC3)C2)cc1` [Cmpd045, 7-((4-(Difluoromethoxy)phenyl)sulfonyl)-2-((4-methoxyphenyl)sulfonyl)-2,7-diazaspiro[3.5]nonane], the EC50 in the assay on INS-1E cells was found to be 12 nM; in the assay on M17_3SYN cells it was 2 nM. In addition, the body weight result with db/db mice (15 mg/kg PO, non-fasted body weight, FIG. 1A) is reported as “decreased”. In the assay on db/db mice (fasted, FIG. 1B), the “Fasted blood glucose levels” value is recorded as “significantly lower”. Besides, in the assay on db/db mice (treated for 4 weeks, FIG. 1C), the “% HbA1c levels” value is “reduced”.

On to `COc1ccc(S(=O)(=O)N2CCC3(CC2)CN(C(=O)C(C)(C)c2ccccc2OC)C3)cc1` [Cmpd024, 2-(2-Methoxyphenyl)-1-(7-((4-methoxyphenyl)sulfonyl)-2,7-diazaspiro[3.5]nonan-2-yl)-2-methylpropan-1-one], for which the figures for the 50% effective concentration (EC50) in the assay on INS-1E cells and with M17_3SYN cells were 63 nM and 81.5 nM, respectively.

Consider `COc1ccc(C(C)C(=O)N2CC3(CCN(S(=O)(=O)c4ccc(OC)cc4)CC3)C2)cc1` (stereo not drawn) [Cmpd019, 2-(4-Methoxyphenyl)-1-(7-((4-methoxyphenyl)sulfonyl)-2,7-diazaspiro[3.5]nonan-2-yl)propan-1-one], for which the EC50 in the assay with INS-1E cells is 54 nM; in the assay with M17_3SYN cells it was 95.3 nM.

For the compound `COc1ccc(S(=O)(=O)N2CCC3(CC2)CN(C(=O)C(C)(O)c2ccccn2)C3)cc1` (stereo not drawn) [Cmpd018, 2-Hydroxy-1-(7-((4-methoxyphenyl)sulfonyl)-2,7-diazaspiro[3.5]nonan-2-yl)-2-(pyridin-2-yl)propan-1-one], the EC50 in the assay on INS-1E cells came out at 58 nM; in the assay with M17_3SYN cells, 241 nM.

Regarding `COc1ccc(S(=O)(=O)N2CCC3(CC2)CN(C(=O)C(C)c2cc(F)cc(F)c2)C3)cc1` (stereo not drawn) [Cmpd029, 2-(3,5-Difluorophenyl)-1-(7-((4-methoxyphenyl)sulfonyl)-2,7-diazaspiro[3.5]nonan-2-yl)propan-1-one], the EC50 with INS-1E cells came out at 57 nM; with M17_3SYN cells, 189 nM.

`CCC(C(=O)N1CC2(CCN(S(=O)(=O)c3ccc(OC)cc3)CC2)C1)c1ccccc1` (stereo not drawn) [Cmpd011, 1-(7-((4-Methoxyphenyl)sulfonyl)-2,7-diazaspiro[3.5]nonan-2-yl)-2-phenylbutan-1-one]: the EC50 was 248 nM in the assay with INS-1E cells and 66.4 nM with M17_3SYN cells.

In the case of `COc1ccc(S(=O)(=O)N2CCC3(CC2)CN(C(=O)CCc2ccc(F)cc2)C3)cc1` [Cmpd015, 3-(4-Fluorophenyl)-1-(7-((4-methoxyphenyl)sulfonyl)-2,7-diazaspiro[3.5]nonan-2-yl)propan-1-one], the EC50 is 31 nM with INS-1E cells and 535 nM in the assay with M17_3SYN cells.

Consider `COc1ccc(S(=O)(=O)N2CCC3(CC2)CN(C(=O)C2CCCc4ccccc42)C3)cc1` (stereo not drawn) [Cmpd025, (7-((4-Methoxyphenyl)sulfonyl)-2,7-diazaspiro[3.5]nonan-2-yl)(1,2,3,4-tetrahydronaphthalen-1-yl)methanone], for which the EC50 in the assay on INS-1E cells worked out at 616 nM; with M17_3SYN cells, 65.3 nM.

As to `COc1ccc(S(=O)(=O)N2CCC3(CC2)CN(C(=O)[C@H](c2ccc(F)cc2)C(C)C)C3)cc1` [Cmpd022, (S)-2-(4-fluorophenyl)-1-(7-((4-methoxyphenyl)sulfonyl)-2,7-diazaspiro[3.5]nonan-2-yl)-3-methylbutan-1-one], the concentration giving a half-maximal response (EC50) came out at 108 nM in the assay on INS-1E cells and 28.7 nM in the assay with M17_3SYN cells.

In the case of `COc1ccc(S(=O)(=O)N2CCC3(CC2)CN(c2nc(CC(F)(F)F)ns2)C3)cc1` [Cmpd031, 5-(7-((4-Methoxyphenyl)sulfonyl)-2,7-diazaspiro[3.5]nonan-2-yl)-3-(2,2,2-trifluoroethyl)-1,2,4-thiadiazole], the results for the EC50 with INS-1E cells and with M17_3SYN cells were 149 nM and 121 nM, respectively.

Turning to `COc1ccc(S(=O)(=O)N2CCC3(CC2)CN(C(=O)C2(c4ccccc4)CC2)C3)cc1` [Cmpd014, (7-((4-Methoxyphenyl)sulfonyl)-2,7-diazaspiro[3.5]nonan-2-yl)(1-phenylcyclopropyl)methanone], the EC50 in the assay with INS-1E cells was 34 nM; with M17_3SYN cells, 56.8 nM.

Take `CC(=O)Nc1ccc(S(=O)(=O)N2CCC3(CC2)CN(c2nc(Cc4ccc(F)cc4)ns2)C3)cc1` [Cmpd058, N-(4-((2-(3-(4-fluorobenzyl)-1,2,4-thiadiazol-5-yl)-2,7-diazaspiro[3.5]nonan-7-yl)sulfonyl)phenyl)acetamide]: the figures for the EC50 in the assay with INS-1E cells and in the assay with M17_3SYN cells were 22 nM and 290 nM, respectively.

As to `COc1ccc(S(=O)(=O)N2CCC3(CC2)CN(S(=O)(=O)c2ccc(OC)cc2)C3)cc1` [Cmpd001, 2,7-Bis((4-methoxyphenyl)sulfonyl)-2,7-diazaspiro[3.5]nonane], the EC50 is 201 nM in the assay on INS-1E cells and 1.1 nM with M17_3SYN cells.

Consider `COc1ccc(S(=O)(=O)N2CCC3(CC2)CN(C(=O)C(C)(C)c2cccc(Cl)c2)C3)cc1` [Cmpd030, 2-(3-Chlorophenyl)-1-(7-((4-methoxyphenyl)sulfonyl)-2,7-diazaspiro[3.5]nonan-2-yl)-2-methylpropan-1-one], for which the EC50 in the assay on INS-1E cells stood at 134 nM; in the assay with M17_3SYN cells, 5 nM.

Consider `COc1ccc(S(=O)(=O)N2CCC3(CC2)CN(S(=O)(=O)c2ccc(Cl)cc2)C3)cc1` [Cmpd005, 2-((4-Chlorophenyl)sulfonyl)-7-((4-methoxyphenyl)sulfonyl)-2,7-diazaspiro[3.5]nonane], for which the EC50 was found to be 20 nM in the assay on INS-1E cells and 6.4 nM with M17_3SYN cells.
